Here are results for 50 molecules from US20250188079A1, “INHIBITING CYCLIC AMP-RESPONSIVE ELEMENT-BINDING PROTEIN (CREB)” (Forma Therapeutics, Inc., priority 2019, published 2025).

The target of the assay is CBP (Homo sapiens (Human), UniProt Q92793). The experiment in a line: HTRF biochemical assay for CBP activity (TR-FRET, bromodomain). The format is binding. Conditions: geometric mean, 10-point 3-fold dilution 33 μM to 1.7 nM, read-out: BROMO IC50 TRF TB CBP (μM gmean). The method, then:
Example 1: HTRF Biochemical Assay for CBP Activity
The assay was performed in a final volume of 6 μL in assay buffer containing 50 mM Hepes (pH 7.5, (0.5M Hepes, pH 7.5 solution; Teknova H1575)), 0.5 mM GSH, 0.01% BGG (0.22 p M filtered, Sigma, G7516-25G), 0.005% BSA (0.22 μM filtered, EMD Millipore Corporation, 126575) and 0.01% Triton X-100 (Sigma, T9284-10L). Nanoliter quantities of 10-point, 3-fold serial dilution in DMSO were pre-dispensed into 1536 assay plates (Corning, #3724BC) for a final test concentration of 33 μM to 1.7 nM, top to lowest dose, respectively. 3 μL of 2×Protein and 3 μL of 2×Peptide Ligand were added to assay plates (pre-stamped with compound). Plates were incubated for varying times at room temperature prior to measuring the signal. TR-FRET (Time-Resolved Fluorescence Resonance Energy Transfer) was measured on the PHERAstar (BMG, equipped with HTRF optic module [337/520/490]) or on the Envision (PerkinElmer, equipped with the TRF Laser unit, TRF dual mirror D400/D505 and emission filters M520 and M495). Data were reported as percent inhibition compared with control wells based on the following equation: % inh=1−((TR-FRET ratio−AveLow)/(AveHigh−AveLow)) where TR-FRET ratio=(Fluorescence at 520 nm/Fluorescence at 490 nm)*10000), AveLow=average TR-FRET ratio of no enzyme control (n=32), and AveHigh=average TR-FRET ratio of DMSO control (n=32). IC50 values were determined by curve fitting of the standard 4 parameter logistic fitting algorithm included in the Activity Base software package: IDBS XE Designer Model205. Data is fitted using the Levenburg Marquardt algorithm. As set forth in Table 2 below, an IC50 value of greater than or equal to 0.001 μM and less than or equal to 0.01 μM is marked “++++”; a value greater than 0.01 μM and less than or equal to 0.1 μM is marked “+++”; a value greater than 0.1 μM and less than or equal to 1 μM is marked “++”; and a value greater than 1 μM and less than 1000 μM is marked “+.” Compounds that were not tested in a particular assay are marked “NT.”

Chain of CBP (Q92793 1085-1192): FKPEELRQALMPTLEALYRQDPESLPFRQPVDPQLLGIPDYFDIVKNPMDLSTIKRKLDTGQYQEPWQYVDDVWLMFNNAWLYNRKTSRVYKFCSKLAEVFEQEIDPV

A word on the IC50: it is the concentration at which inhibition is half-maximal. `COC(=O)N1CCc2ccc3c(nc([C@H]4CC[C@H](C(=O)O)CC4)n3[C@@H](C)C[C@H]3CC[C@H](OC)CC3)c2C1` [Compound 202]: the half-inhibitory concentration (IC50) lay in the range of 0.01 to 0.1 µM.

As for `COC(=O)N1CCc2ccc3c(nc([C@H]4CC[C@H](C(=O)O)CC4)n3[C@@H](C)Cc3ccccc3F)c2C1` [Compound 314], the IC50 is 0.1 to 1 µM.

`COC(=O)N1CCc2ccc3c(nc([C@H]4CCCOC4)n3C[C@H](C(=O)O)c3ccccc3)c2C1` [Compound 89]: the IC50 was in the range of 0.001 to 0.01 µM.

For the molecule `COC(=O)N1CCc2ccc3c(nc(N4CCN(C(=O)CO)CC4)n3[C@@H](C)Cc3ccccc3)c2C1` [Compound 164], the half-maximal inhibitory concentration (IC50) is 0.001 to 0.01 µM.

Consider `COC(=O)N1CCc2ccc3c(nc(C4CCN(S(=O)(=O)NC(C)=O)CC4)n3[C@@H](C)Cc3ccccc3)c2C1` [Compound 178], for which the IC50 was in the range of 0.01 to 0.1 µM.

Turning to `COC(=O)N1Cc2c(ccc3c2nc(C2CCCCC2)n3CCc2ccccc2)C[C@H]1C` [Compound 232], the concentration for half-maximal inhibition (IC50) lay in the range of 0.01 to 0.1 µM.

With `COC(=O)N1CCc2c([C@H]3CCOC3)cc3c(nc([C@H]4CC[C@H](C(=O)O)CC4)n3CCc3ccccc3)c2C1` [Compound 136], the half-inhibitory concentration (IC50) fell in the range of 0.001 to 0.01 µM.

Take `COC(=O)N1CCc2ccc3c(nc(C4CCN(S(C)(=O)=O)CC4)n3[C@H](C)Cn3cc(Cl)cn3)c2C1` [Compound 110]: the IC50 was in the range of 0.001 to 0.01 µM.

Take `COC(=O)N1CCc2ccc3c(nc([C@H]4CC[C@H](C(=O)O)CC4)n3[C@@H](C)Cn3cc(Cl)cn3)c2C1` [Compound 85]: the half-inhibitory concentration (IC50) was 0.001 to 0.01 µM.

For the molecule `COC(=O)N1CCc2ccc3c(nc([C@H]4CC[C@H](C(=O)O)CC4)n3[C@@H](C)Cc3ccc4c(c3)CCO4)c2C1` [Compound 65], the IC50 is 0.001 to 0.01 µM.

On to `COC(=O)N1CCc2ccc3c(nc([C@H]4CC[C@H](C(=O)O)CC4)n3[C@H](C)Cc3ccc(F)c(OC)c3)c2C1` [Compound 286], for which the 50% inhibitory concentration (IC50) lay within 0.01 to 0.1 µM.

Regarding `COC(=O)N1CCc2ccc3c(nc(N4CCN(C(=O)C5COC5)CC4)n3[C@@H](C)Cc3ccccc3)c2C1` [Compound 337], the half-inhibitory concentration (IC50) fell in the range of 0.1 to 1 µM.

For `COC(=O)N1CCc2ccc3c(nc([C@H]4CC[C@@](C)(C(=O)O)CC4)n3[C@@H](CO)Cc3ccccc3)c2C1` [Compound 341], the IC50 lay within 0.1 to 1 µM.

For `COC(=O)N1CCc2c(C(=O)O)cc3c(nc(C4CCCCC4)n3[C@@H](C)Cc3ccccc3)c2C1` [Compound 67], the IC50 lay in the range of 0.001 to 0.01 µM.

Turning to `COC(=O)N1CCc2ccc3c(nc(C4CCN(C(C)=O)CC4)n3[C@@H](C)Cc3ccccc3)c2C1` [Compound 323], the IC50 was in the range of 0.1 to 1 µM.

Regarding `COC(=O)N1CCc2ccc3c(nc([C@@H]4CCC[C@@H](C(=O)O)C4)n3[C@@H](C)Cc3ccc(F)c(F)c3)c2C1` [Compound 143], the half-inhibitory concentration (IC50) was 0.001 to 0.01 µM.

For the molecule `COC(=O)N1CCc2cc(C#N)c3c(nc([C@H]4CC[C@H](C(=O)O)CC4)n3CCc3ccccc3)c2C1` [Compound 153], the concentration for half-maximal inhibition (IC50) is 0.001 to 0.01 µM.

For the molecule `COC(=O)N1CCc2ccc3c(nc(C4CS(=O)(=O)C4)n3CCc3ccccc3)c2C1` [Compound 342], the half-inhibitory concentration (IC50) lay in the range of 0.1 to 1 µM.

As to `COC(=O)N1CCc2ccc3c(nc(C4CCCCC4)n3C[C@H](O)c3cccc(C(=O)O)c3)c2C1` [Compound 173], the IC50 was in the range of 0.01 to 0.1 µM.

Take `COC(=O)N1CCc2ccc3c(nc([C@H]4CC[C@H](C(=O)O)CC4)n3[C@H](C)[C@H](O)c3ccccc3)c2C1` [Compound 276]: the concentration for half-maximal inhibition (IC50) was in the range of 0.01 to 0.1 µM.

As to `COC(=O)N1CCc2ccc3c(nc([C@H]4CC[C@H](C(=O)O)CC4)n3[C@@H]3CCc4ccccc4C3)c2C1` [Compound 335], the IC50 fell in the range of 0.1 to 1 µM.

As for `COC(=O)N1CCc2ccc3c(nc(-c4cccc([C@](C)(O)C(=O)O)c4)n3[C@H](C)Cc3ccccc3)c2C1` [Compound 140], the IC50 was 0.001 to 0.01 µM.

`COC(=O)N1CCc2ccc3c(nc([C@@H]4CCC[C@@H](C(=O)O)C4)n3[C@H](C)Cc3ccccc3Cl)c2C1` (single isomer, unassigned) [Compound 263]: the concentration for half-maximal inhibition (IC50) lay in the range of 0.01 to 0.1 µM.

Turning to `COC(=O)N1CCc2ccc3c(nc(N4CCC(C(=O)O)CC4)n3[C@@H](C)Cc3ccccc3Cl)c2C1` (single isomer, unassigned) [Compound 14], the IC50 was 0.001 to 0.01 µM.

Turning to `COC(=O)N1CCc2ccc3c(nc(N4CCC(C(=O)O)CC4)n3[C@H](C)Cc3cc(F)cc(OC)c3)c2C1` (single isomer, unassigned) [Compound 16], the half-maximal inhibitory concentration (IC50) fell in the range of 0.001 to 0.01 µM.

`COC(=O)N1CCc2ccc3c(nc([C@H]4CCCOC4)n3C[C@H](C(=O)O)c3ccc(C)cc3)c2C1` [Compound 53]: the IC50 fell in the range of 0.001 to 0.01 µM.

Turning to `COC(=O)N1CCc2ccc3c(nc(C4CCCCC4)n3C[C@@H](CC(=O)O)c3cc(F)cc(F)c3)c2C1` [Compound 76], the half-inhibitory concentration (IC50) was in the range of 0.001 to 0.01 µM.

In the case of `COC(=O)N1CCc2ccc3c(nc(C4CCCCC4)n3[C@@H](C)C[C@H]3CCCC[C@H]3C(=O)O)c2C1` [Compound 204], the IC50 fell in the range of 0.01 to 0.1 µM.

On to `COC(=O)N1CCc2ccc3c(nc(N4CCC[C@H](C(=O)O)C4)n3C[C@H](C)c3ccccc3)c2C1` [Compound 306], for which the IC50 lay in the range of 0.1 to 1 µM.

For `COC(=O)N1CCc2ccc3c(nc(N4CCN(S(C)(=O)=O)CC4)n3[C@H](C)Cn3cc(Cl)cn3)c2C1` [Compound 343], the IC50 lay within 0.1 to 1 µM.

Regarding `COC(=O)N1CCc2ccc3c(nc(N4CCC[C@H](C(=O)O)C4)n3[C@@H](C)Cc3ccccc3)c2C1` [Compound 161], the concentration for half-maximal inhibition (IC50) lay within 0.001 to 0.01 µM.

With `COC(=O)N1CCc2ccc3c(nc(C4CCN(C(C)=O)CC4)n3C[C@@H](C(=O)O)c3ccccc3)c2C1` [Compound 62], the IC50 lay within 0.001 to 0.01 µM.

As for `COC(=O)N1CCc2ccc3c(nc([C@H]4CCC[C@H](C(=O)O)C4)n3Cc3cccc(OC)n3)c2C1` [Compound 277], the 50% inhibitory concentration (IC50) lay in the range of 0.01 to 0.1 µM.

Regarding `COC(=O)N1CCc2ccc3c(nc([C@@H]4CCC[C@@H](C(=O)O)C4)n3[C@H](C)Cc3ccccc3C)c2C1` (single isomer, unassigned) [Compound 284], the half-maximal inhibitory concentration (IC50) was in the range of 0.01 to 0.1 µM.

As to `COC(=O)N1CCc2ccc3c(nc(N4CCC(C(=O)O)CC4)n3[C@H](C)Cc3cc(F)cc(F)c3)c2C1` [Compound 308], the 50% inhibitory concentration (IC50) is 0.1 to 1 µM.

As for `COC(=O)N1CCc2ccc3c(nc([C@H]4CCC[C@H](C(=O)O)C4)n3[C@@H](C)Cc3ccccc3C)c2C1` (single isomer, unassigned) [Compound 18], the IC50 lay in the range of 0.001 to 0.01 µM.

Regarding `COC(=O)N1CCc2ccc3c(nc([C@H]4CC[C@H](C(=O)O)CC4)n3[C@@H](C)Cc3cc(F)cc(F)c3)c2C1` (single isomer, unassigned) [Compound 3], the IC50 lay in the range of 0.001 to 0.01 µM.

For the molecule `COC(=O)N1CCc2ccc3c(nc(C4CCNCC4)n3CCc3ccccc3)c2C1` [Compound 345], the half-maximal inhibitory concentration (IC50) was 0.1 to 1 µM.

In the case of `COC(=O)N1CCc2ccc3c(nc(N4CCC(C)(C(=O)O)CC4)n3[C@@H](C)Cc3ccccc3)c2C1` [Compound 75], the IC50 is 0.001 to 0.01 µM.

Take `COC(=O)N1CCc2ccc3c(nc(N4CCCCC4)n3[C@@H](C)Cc3cccc(-c4nnn[nH]4)c3)c2C1` [Compound 108]: the half-maximal inhibitory concentration (IC50) lay within 0.001 to 0.01 µM.

For the molecule `COC(=O)N1CCc2ccc3c(nc([C@H]4CC[C@H](C(=O)O)CC4)n3[C@H](C)Cc3ccc4c(c3)CCO4)c2C1` [Compound 332], the 50% inhibitory concentration (IC50) lay in the range of 0.1 to 1 µM.

On to `COC(=O)N1CCc2ccc3c(nc([C@H]4CC[C@H](C(=O)O)CC4)n3[C@@H](C)Cc3ccccc3Cl)c2C1` [Compound 42], for which the IC50 fell in the range of 0.001 to 0.01 µM.

For the molecule `COC(=O)N1CCc2ccc3c(nc([C@H]4CC[C@](C)(C(=O)O)CC4)n3[C@H](CO)Cc3ccccc3)c2C1` [Compound 117], the half-maximal inhibitory concentration (IC50) lay within 0.001 to 0.01 µM.

For `COC(=O)N1CCc2ccc3c(nc([C@H]4CC[C@H](C(=O)O)CC4)n3[C@@H](C)Cc3c(C)cccc3C)c2C1` [Compound 6], the half-maximal inhibitory concentration (IC50) was 0.001 to 0.01 µM.

For the molecule `COC(=O)N1CCc2ccc3c(nc(-c4ccc(C(=O)O)c(F)c4)n3[C@@H](C)Cc3ccccc3)c2C1` [Compound 133], the IC50 lay within 0.001 to 0.01 µM.

Turning to `COC(=O)N1CCc2ccc3c(nc([C@@H]4CCCOC4)n3C[C@H](C(=O)O)c3ccccc3)c2C1` [Compound 257], the IC50 was 0.01 to 0.1 µM.

Turning to `COC(=O)N1CCc2ccc3c(nc([C@H]4CC[C@H](C(=O)O)CC4)n3[C@H](CO)Cc3ccc(F)c(F)c3)c2C1` [Compound 288], the IC50 fell in the range of 0.01 to 0.1 µM.

Consider `COC(=O)N1CCc2c([C@H]3CCOC3)cc3c(nc([C@H]4CC[C@H](C(=O)O)CC4)n3[C@H](C)Cc3ccccc3)c2C1` [Compound 201], for which the IC50 was in the range of 0.01 to 0.1 µM.

Consider `COC(=O)N1CCc2ccc3c(nc([C@H]4CCCOC4)n3C[C@@H](C(=O)O)c3ccccc3)c2C1` [Compound 61], for which the half-maximal inhibitory concentration (IC50) is 0.001 to 0.01 µM.

In the case of `COC(=O)N1CCc2ccc3c(nc([C@H]4CC[C@H](C(=O)O)CC4)n3[C@H](C)Cc3ccccc3F)c2C1` [Compound 51], the half-inhibitory concentration (IC50) is 0.001 to 0.01 µM.
